From the NIST ThermoML archive (doi:10.1021/acs.jced.8b00854)
Numbers after ± are expanded uncertainties.

What was measured:
[1] = xn = mol fraction of the nth substance listed; settings: 100 kPa, Liquid, Vibrating tube method
[2] = refractive index (Na D-line) (dimensionless); xn = mol fraction of the nth substance listed; settings: 100 kPa, Liquid, Standard Abbe refractometry

Work on `CCn1cc[n+](C)c1.O=S(=O)([O-])C(F)(F)F` [1-ethyl-3-methylimidazolium trifluoromethanesulfonate] + O yielded a mass density ([1]; 293.15 K, x1 = 0.1001) of 1209.27 ± 2.1 kg/m3, a mass density ([1]; 293.15 K, x1 = 0.2002) of 1281.52 ± 2 kg/m3 and a mass density ([1]; 293.15 K, x1 = 0.3005) of 1315.51 ± 2 kg/m3. The mass density ([1]; 293.15 K, x1 = 0.4002) was 1336.6 ± 2 kg/m3, the mass density ([1]; 293.15 K, x1 = 0.5003) was 1352.45 ± 2 kg/m3 and the mass density ([1]; 293.15 K, x1 = 0.5997) was 1364.43 ± 2 kg/m3. The mass density ([1]; 293.15 K, x1 = 0.6996) was 1372.69 ± 2 kg/m3, the mass density ([1]; 293.15 K, x1 = 0.8011) was 1379.1 ± 2 kg/m3 and the mass density ([1]; 293.15 K, x1 = 0.8992) was 1384.17 ± 2 kg/m3. The mass density ([1]; 303.15 K, x1 = 0.1001) was 1201.8 ± 2.1 kg/m3, the mass density ([1]; 303.15 K, x1 = 0.2002) was 1272.85 ± 2 kg/m3 and the mass density ([1]; 303.15 K, x1 = 0.3005) was 1307.15 ± 2 kg/m3. For the same compound, the mass density ([1]; 303.15 K, x1 = 0.4002) was 1328.01 ± 2 kg/m3, the mass density ([1]; 303.15 K, x1 = 0.5003) was 1343.96 ± 2 kg/m3 and the mass density ([1]; 303.15 K, x1 = 0.5997) was 1356.16 ± 2 kg/m3. For the same compound, the mass density ([1]; 303.15 K, x1 = 0.6996) was 1364.59 ± 2 kg/m3, the mass density ([1]; 303.15 K, x1 = 0.8011) was 1370.87 ± 2 kg/m3 and the mass density ([1]; 303.15 K, x1 = 0.8992) was 1375.74 ± 2 kg/m3. It also gave a mass density ([1]; 313.15 K, x1 = 0.1001) of 1193.23 ± 2.1 kg/m3, a mass density ([1]; 313.15 K, x1 = 0.2002) of 1263.86 ± 2 kg/m3 and a mass density ([1]; 313.15 K, x1 = 0.3005) of 1298.67 ± 2 kg/m3. For the same compound, the mass density ([1]; 313.15 K, x1 = 0.4002) was 1319.89 ± 2 kg/m3, the mass density ([1]; 313.15 K, x1 = 0.5003) was 1335.41 ± 2 kg/m3 and the mass density ([1]; 313.15 K, x1 = 0.5997) was 1347.44 ± 2 kg/m3. For the same compound, the mass density ([1]; 313.15 K, x1 = 0.6996) was 1355.79 ± 2 kg/m3, the mass density ([1]; 313.15 K, x1 = 0.8011) was 1362.45 ± 2 kg/m3 and the mass density ([1]; 313.15 K, x1 = 0.8992) was 1367.34 ± 2 kg/m3. For the same compound, the mass density ([1]; 323.15 K, x1 = 0.1001) was 1184.96 ± 2.1 kg/m3, the mass density ([1]; 323.15 K, x1 = 0.2002) was 1254.13 ± 2 kg/m3 and the mass density ([1]; 323.15 K, x1 = 0.3005) was 1289.63 ± 2 kg/m3. It also gave a mass density ([1]; 323.15 K, x1 = 0.4002) of 1311.02 ± 2 kg/m3, a mass density ([1]; 323.15 K, x1 = 0.5003) of 1326.85 ± 2 kg/m3 and a mass density ([1]; 323.15 K, x1 = 0.5997) of 1338.82 ± 2 kg/m3. It also gave a mass density ([1]; 323.15 K, x1 = 0.6996) of 1347.42 ± 2 kg/m3, a mass density ([1]; 323.15 K, x1 = 0.8011) of 1353.98 ± 2 kg/m3 and a mass density ([1]; 323.15 K, x1 = 0.8992) of 1359.01 ± 2 kg/m3. It also gave a mass density ([1]; 333.15 K, x1 = 0.1001) of 1175.32 ± 2.1 kg/m3, a mass density ([1]; 333.15 K, x1 = 0.2002) of 1243.01 ± 2 kg/m3 and a mass density ([1]; 333.15 K, x1 = 0.3005) of 1279.6 ± 2 kg/m3. For the same compound, the mass density ([1]; 333.15 K, x1 = 0.4002) was 1301.89 ± 2 kg/m3, the mass density ([1]; 333.15 K, x1 = 0.5003) was 1318.27 ± 2 kg/m3 and the mass density ([1]; 333.15 K, x1 = 0.5997) was 1329.91 ± 2 kg/m3. For the same compound, the mass density ([1]; 333.15 K, x1 = 0.6996) was 1338.78 ± 2 kg/m3, the mass density ([1]; 333.15 K, x1 = 0.8011) was 1345.55 ± 2 kg/m3 and the mass density ([1]; 333.15 K, x1 = 0.8992) was 1350.72 ± 2 kg/m3. For the same compound, the mass density ([1]; 343.15 K, x1 = 0.1001) was 1162.52 ± 2.1 kg/m3, the mass density ([1]; 343.15 K, x1 = 0.2002) was 1232.07 ± 2 kg/m3 and the mass density ([1]; 343.15 K, x1 = 0.3005) was 1269.41 ± 2 kg/m3. The mass density ([1]; 343.15 K, x1 = 0.4002) was 1292.35 ± 2 kg/m3, the mass density ([1]; 343.15 K, x1 = 0.5003) was 1309.53 ± 2 kg/m3 and the mass density ([1]; 343.15 K, x1 = 0.5997) was 1321.23 ± 2 kg/m3. It also gave a mass density ([1]; 343.15 K, x1 = 0.6996) of 1330.17 ± 2 kg/m3, a mass density ([1]; 343.15 K, x1 = 0.8011) of 1336.93 ± 2 kg/m3 and a mass density ([1]; 343.15 K, x1 = 0.8992) of 1342.48 ± 2 kg/m3. It also gave a refractive index ([2]; 293.15 K, x1 = 0.1001) of 1.3885 ± 0.0019, a refractive index ([2]; 293.15 K, x1 = 0.2002) of 1.406 ± 0.0016 and a refractive index ([2]; 293.15 K, x1 = 0.3005) of 1.4155 ± 0.0016. For the same compound, the refractive index ([2]; 293.15 K, x1 = 0.4002) was 1.421 ± 0.0017, the refractive index ([2]; 293.15 K, x1 = 0.5003) was 1.425 ± 0.0016 and the refractive index ([2]; 293.15 K, x1 = 0.5997) was 1.4275 ± 0.0016. The refractive index ([2]; 293.15 K, x1 = 0.6996) was 1.43 ± 0.0016, the refractive index ([2]; 293.15 K, x1 = 0.8011) was 1.4315 ± 0.0016 and the refractive index ([2]; 293.15 K, x1 = 0.8992) was 1.4325 ± 0.0017. The refractive index ([2]; 303.15 K, x1 = 0.1001) was 1.3865 ± 0.0016, the refractive index ([2]; 303.15 K, x1 = 0.2002) was 1.4055 ± 0.0016 and the refractive index ([2]; 303.15 K, x1 = 0.3005) was 1.414 ± 0.0016. The refractive index ([2]; 303.15 K, x1 = 0.4002) was 1.4175 ± 0.0017, the refractive index ([2]; 303.15 K, x1 = 0.5003) was 1.423 ± 0.0016 and the refractive index ([2]; 303.15 K, x1 = 0.5997) was 1.4255 ± 0.0016. The refractive index ([2]; 303.15 K, x1 = 0.6996) was 1.4275 ± 0.0016, the refractive index ([2]; 303.15 K, x1 = 0.8011) was 1.4295 ± 0.0016 and the refractive index ([2]; 303.15 K, x1 = 0.8992) was 1.43 ± 0.0016. It also gave a refractive index ([2]; 313.15 K, x1 = 0.1001) of 1.386 ± 0.0016, a refractive index ([2]; 313.15 K, x1 = 0.2002) of 1.403 ± 0.0016 and a refractive index ([2]; 313.15 K, x1 = 0.3005) of 1.412 ± 0.0016. The refractive index ([2]; 313.15 K, x1 = 0.4002) was 1.415 ± 0.0016, the refractive index ([2]; 313.15 K, x1 = 0.5003) was 1.421 ± 0.0016 and the refractive index ([2]; 313.15 K, x1 = 0.5997) was 1.4235 ± 0.0016. The refractive index ([2]; 313.15 K, x1 = 0.6996) was 1.4255 ± 0.0016, the refractive index ([2]; 313.15 K, x1 = 0.8011) was 1.427 ± 0.0016 and the refractive index ([2]; 313.15 K, x1 = 0.8992) was 1.4285 ± 0.0016. The refractive index ([2]; 323.15 K, x1 = 0.1001) was 1.3855 ± 0.0016, the refractive index ([2]; 323.15 K, x1 = 0.2002) was 1.4025 ± 0.0016 and the refractive index ([2]; 323.15 K, x1 = 0.3005) was 1.411 ± 0.0016. The refractive index ([2]; 323.15 K, x1 = 0.4002) was 1.414 ± 0.0016, the refractive index ([2]; 323.15 K, x1 = 0.5003) was 1.42 ± 0.0016 and the refractive index ([2]; 323.15 K, x1 = 0.5997) was 1.422 ± 0.0017. For the same compound, the refractive index ([2]; 323.15 K, x1 = 0.6996) was 1.4235 ± 0.0016, the refractive index ([2]; 323.15 K, x1 = 0.8011) was 1.4255 ± 0.0016 and the refractive index ([2]; 323.15 K, x1 = 0.8992) was 1.426 ± 0.0017. The refractive index ([2]; 333.15 K, x1 = 0.1001) was 1.385 ± 0.0016, the refractive index ([2]; 333.15 K, x1 = 0.2002) was 1.4005 ± 0.0016 and the refractive index ([2]; 333.15 K, x1 = 0.3005) was 1.4095 ± 0.0016. For the same compound, the refractive index ([2]; 333.15 K, x1 = 0.4002) was 1.413 ± 0.0016, the refractive index ([2]; 333.15 K, x1 = 0.5003) was 1.418 ± 0.0016 and the refractive index ([2]; 333.15 K, x1 = 0.5997) was 1.418 ± 0.0016. It also gave a refractive index ([2]; 333.15 K, x1 = 0.6996) of 1.421 ± 0.0016, a refractive index ([2]; 333.15 K, x1 = 0.8011) of 1.423 ± 0.0016 and a refractive index ([2]; 333.15 K, x1 = 0.8992) of 1.4237 ± 0.0017. The refractive index ([2]; 343.15 K, x1 = 0.1001) was 1.385 ± 0.0022, the refractive index ([2]; 343.15 K, x1 = 0.2002) was 1.3995 ± 0.0016 and the refractive index ([2]; 343.15 K, x1 = 0.3005) was 1.409 ± 0.0016. It also gave a refractive index ([2]; 343.15 K, x1 = 0.4002) of 1.413 ± 0.0016, a refractive index ([2]; 343.15 K, x1 = 0.5003) of 1.417 ± 0.0016 and a refractive index ([2]; 343.15 K, x1 = 0.5997) of 1.4175 ± 0.0016. For the same compound, the refractive index ([2]; 343.15 K, x1 = 0.6996) was 1.419 ± 0.0016, the refractive index ([2]; 343.15 K, x1 = 0.8011) was 1.421 ± 0.0017 and the refractive index ([2]; 343.15 K, x1 = 0.8992) was 1.4215 ± 0.0017.
